{
  "source": "paper PMC12528653",
  "about": "“Functional characterization of key enzymes involved in the biosynthesis of distinctive flavonoids and stilbenoids in Morus notabilis” (Horticulture Research, 2025)",
  "assay_in_all_cases": "HPLC product assay, relative activity vs wild type",
  "assay_type_in_all_cases": "biochemical",
  "key": {"MnFLS [1]": {"biological_target": "T1, MnFLS (Morus notabilis, UniProt W9RQ78, T117S)", "T1 construct": "gene L484_013110; full-length ORF (1008 bp, 335 aa) in pET32a, E. coli BL21(DE3), purified recombinant", "T1 sequence (W9RQ78 entry or part of it T117S)": "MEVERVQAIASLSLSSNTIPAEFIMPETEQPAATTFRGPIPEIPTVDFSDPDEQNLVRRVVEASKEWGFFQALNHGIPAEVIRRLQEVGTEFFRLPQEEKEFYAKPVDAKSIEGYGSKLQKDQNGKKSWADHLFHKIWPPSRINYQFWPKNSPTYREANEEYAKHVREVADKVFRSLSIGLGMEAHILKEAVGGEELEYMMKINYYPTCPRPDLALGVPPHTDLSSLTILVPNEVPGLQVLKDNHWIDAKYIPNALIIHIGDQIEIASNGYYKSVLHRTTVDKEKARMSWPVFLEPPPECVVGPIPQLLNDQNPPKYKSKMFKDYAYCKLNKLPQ", "settings": "100 μM substrate; 2-oxoglutarate, ascorbate, FeSO4; Tris-HCl pH 7.0, 30°C, 1 h"}, "MnFLS [2]": {"biological_target": "T2, MnFLS (Morus notabilis, UniProt W9RQ78, L224M)", "T2 construct": "gene L484_013110; full-length ORF (1008 bp, 335 aa) in pET32a, E. coli BL21(DE3), purified recombinant", "T2 sequence (W9RQ78 entry or part of it L224M)": "as the sequence (W9RQ78 entry or part of it T117S) above, with S117T, L224M counted along it", "settings": "100 μM substrate; 2-oxoglutarate, ascorbate, FeSO4; Tris-HCl pH 7.0, 30°C, 1 h; wild-type residue also printed as Met224"}, "MnFLS [3]": {"biological_target": "T3, MnFLS (Morus notabilis, UniProt W9RQ78, T117I)", "T3 construct": "gene L484_013110; full-length ORF (1008 bp, 335 aa) in pET32a, E. coli BL21(DE3), purified recombinant", "T3 sequence (W9RQ78 entry or part of it T117I)": "as the sequence (W9RQ78 entry or part of it T117S) above, with S117I counted along it", "settings": "100 μM substrate; 2-oxoglutarate, ascorbate, FeSO4; Tris-HCl pH 7.0, 30°C, 1 h"}, "MnFLS [4]": {"biological_target": "T4, MnFLS (Morus notabilis, UniProt W9RQ78, K202V)", "T4 construct": "gene L484_013110; full-length ORF (1008 bp, 335 aa) in pET32a, E. coli BL21(DE3), purified recombinant", "T4 sequence (W9RQ78 entry or part of it K202V)": "as the sequence (W9RQ78 entry or part of it T117S) above, with S117T, K202V counted along it", "settings": "100 μM substrate; 2-oxoglutarate, ascorbate, FeSO4; Tris-HCl pH 7.0, 30°C, 1 h"}},
  "data": [
    {"smiles": "O=C1c2c(O)cc(O)cc2O[C@H](c2ccc(O)cc2)[C@H]1O", "note": "[dihydrokaempferol]", "values": [
      {"measurement": "HPLC product assay, relative activity vs wild type", "setting": "MnFLS [1]", "result": "T117S resulted in significant enhancement of activity for both naringenin and dihydrokaempferol as substrates"},
      {"measurement": "HPLC product assay, relative activity vs wild type", "setting": "MnFLS [2]", "result": "The variant L224M facilitated the conversion of dihydrokaempferol to kaempferol"},
      {"measurement": "HPLC product assay, relative activity vs wild type", "setting": "MnFLS [3]", "result": "replacing the Thr117 with Ile led to reduced activity"},
      {"measurement": "HPLC product assay, relative activity vs wild type", "setting": "MnFLS [4]", "result": "the mutant K202V suffered an almost complete loss of enzymatic function"}
    ]},
    {"smiles": "O=C1C[C@@H](c2ccc(O)cc2)Oc2cc(O)cc(O)c21", "note": "[naringenin]", "values": [
      {"measurement": "HPLC product assay, relative activity vs wild type", "setting": "MnFLS [1]", "result": "T117S resulted in significant enhancement of activity for both naringenin and dihydrokaempferol as substrates"},
      {"measurement": "HPLC product assay, relative activity vs wild type", "setting": "MnFLS [2]", "result": "promoted an increased synthesis of dihydrokaempferol and kaempferol from naringenin"},
      {"measurement": "HPLC product assay, relative activity vs wild type", "setting": "MnFLS [3]", "result": "replacing the Thr117 with Ile led to reduced activity"},
      {"measurement": "HPLC product assay, relative activity vs wild type", "setting": "MnFLS [4]", "result": "the mutant K202V suffered an almost complete loss of enzymatic function"}
    ]}
  ]
}
